According to patent US8497382B2, “Carboxylic acid derivative containing thiazole ring and pharmaceutical use thereof” (Mitsubishi Tanabe Pharma Corporation, priority 2008, dated 2013):

How the values were obtained:
[1] = target: T1, Human Peroxisome Proliferator-Activated Receptor (PPAR)α (Homo sapiens, UniProt Q07869); test: Transactivation test for human PPARα (GAL4-hPPARαLBD luciferase reporter in CV-1 cells); format: cell-based; details: for EC50: CV-1 cells, GAL4-hPPARαLBD, luciferase activity after 24 hr, read-out: transactivation action (EC50, nmol/l)
T1 construct: expressed in transfected cells
T1 sequence (Q07869 239-466 limits assumed): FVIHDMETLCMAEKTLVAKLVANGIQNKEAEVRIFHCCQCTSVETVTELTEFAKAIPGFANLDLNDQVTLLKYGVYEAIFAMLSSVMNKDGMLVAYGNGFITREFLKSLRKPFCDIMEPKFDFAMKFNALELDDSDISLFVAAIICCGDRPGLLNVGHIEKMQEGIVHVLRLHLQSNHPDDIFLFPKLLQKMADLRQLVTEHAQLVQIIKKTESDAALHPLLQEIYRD
Source text: Transactivation Test for Human Peroxisome Proliferator-Activated Receptor (PPAR)α
CV-1 cells (CCL-70, manufactured by Dainippon Pharma Co., Ltd.) cultured in Dulbecco's Modified Eagle Medium (DMEM) containing 10% fetal bovine serum (FBS) were transfected, using Lipofectamine 2000 (manufactured by Invitrogen), with pBIND vector (manufactured by Promega) that expresses a fusion protein of a DNA binding region of a yeast transcription factor (GAL4) and a human PPARα ligand binding region (GAL4-hPPARαLBD, manufactured based on Diabetes 47: 1841-1847, 1998), and an internal standard renilla luciferase, and GAL4 responsive TK vector that expresses reporter firefly luciferase (manufactured by Promega). 24 hr later, the medium was changed to a serum free medium containing a test compound, and the luciferase activity after 24 hr was measured.

[2] = system: high cholesterol diet-treated rat; test: Influence on serum lipid of high cholesterol diet-treated rat; format: in vivo, SD rats; details: once a day for 5 days, high cholesterol diet rats
Description: 2) Influence on Serum Lipid of High Cholesterol Diet-Treated Rat
8-week-old male SD rats (manufactured by SEAC Yoshitomi, Ltd.) were raised on a standard diet CE-2 (manufactured by Japan Clea, Inc.) added with 1% cholesterol, 2% olive oil and 0.2% cholic acid, from one week before test compound administration to the last day of the administration. A test compound and a control compound (GW-9578) were dissolved or suspended in 1% ethanol and 0.05% Tween80 (final concentration), and 0.5% hydroxypropylmethyl cellulose (HPMC) was added to adjust to a given concentration. The prepared solution was orally administered once a day for 5 days. After administration for 5 days, blood samples were collected from the jugular vein under non-fasting condition and blood lipid was measured by an enzyme method. The lowering rate was calculated by determining the rate of a value obtained by subtracting the average blood TG (or average blood TC) of a drug administration group from the average blood triglyceride (TG) (or average blood total cholesterol (TC)) of a vehicle administration group, to the average blood TG (or average blood TC) of the vehicle administration group.

normal rats = test: Blood triglyceride (TG)-lowering action in normal rats; format: in vivo; details: normal male SD rats; for TG lowering rate: p.o., once a day for 4 days, non-fasting; for TG-lowering action: 0.01 mg/kg
Description: 1) Blood Triglyceride (TG)-Lowering Action in Normal Rats
7 to 9-week-old male SD rats (manufactured by SEAC Yoshitomi, Ltd.) were used for the test. A test compound and a control compound (GW-9578: J. Med. Chem. 1999, 42, 3785-3788) were dissolved or suspended in 1% ethanol, 0.05% Tween80 (final concentration), and 0.5% hydroxypropylmethyl cellulose (HPMC) was added to adjust to a given concentration. The prepared solution was orally administered once a day for 4 days. After administration for 4 days, blood samples were collected from the jugular vein under non-fasting condition and blood TG was measured by an enzyme method. The lowering rate was calculated by determining the rate of a value obtained by subtracting the average blood TG of a drug administration group from the average blood TG of a vehicle administration group, to the average blood TG of the vehicle administration group.

[3] = Metabolizing isoform identification test (oxidative metabolism by microsome), human liver microsome; format: in vitro ADME; details: for oxidative metabolism by human liver microsome: 14C-labeled test compound 2 μmol/L, 0.5 mg protein/mL, 37° C., 20 min
Description: (§1) Metabolizing Isoform Identification Test (Oxidative Metabolism by Microsome)
(§2) As a reaction mixture for the CYP isoform identification, a reaction mixture containing microsome [^14C-labeled test compound (2 μmol/L), microsome (human liver microsome at 0.5 mg protein/mL or microsome expressing CYP at 50 pmol CYP/mL (Control microsome, CYP1A2, CYP2A6, CYP2B6, CYP2C8, CYP2C9, CYP2C19, CYP2D6, CYP2E1 or CYP3A4)), EDTA (0.05 mmol/L) and Na—K phosphate buffer (pH 7.4, 0.1 mol/L)] was prepared and, after preincubation at 37° C. for 5 min, a solution of the NADPH generating system [β-NADP+ (0.5 mmol/L), glucose-6-phosphate (G-6-P) (5.0 mmol/L), magnesium chloride (5.0 mmol/L) and G-6-P DH (1.0 unit/mL)] was added to start the reaction. For CYP expressing microsomes for CYP2A6 and CYP2C9, Tris-HCl buffer (pH 7.4, 0.1 mol/L) was used instead of Na—K phosphate buffer (pH 7.4, 0.1 mol/L).
(§3) These reaction mixtures were incubated at 37° C. for 20 min, and a 3-fold amount of ethanol was added to the reaction mixtures to terminate the reaction. To the reaction mixture was added a predetermined amount of an unlabeled metabolite mixed solution, and the mixture was stirred (about 5 min), centrifuged (4° C., 3000 rpm, 10 min) and the supernatant was collected. To the residue was added a 3-fold amount of ethanol relative to the reaction mixture, and the mixture was stirred (about 5 min), and centrifuged (4° C., 3000 rpm, 10 min). The supernatant was collected and combined with the supernatant collected earlier, and the solvent was evaporated under a nitrogen stream at about 40° C. To the residue was added a predetermined amount of HPLC mobile phase or suitable solvent, and the mixture was stirred and used as an HPLC sample. The sample was injected into HPLC and a radiochromatogram was obtained. From the obtained radiochromatogram, the metabolism activity and metabolite generating activity of the ^14C-labeled test compound was calculated.

CYP3A4 = CYP3A4 (Homo sapiens, UniProt P08684); test: Metabolizing isoform identification test, microsome expressing CYP3A4; format: in vitro ADME; details: microsome expressing CYP at 50 pmol CYP/mL, 2 μmol/L, 37° C., 20 min
Description: as §1, §2
(§4) These reaction mixtures were incubated at 37° C. for 20 min, and a 3-fold amount of ethanol was added to the reaction mixtures to terminate the reaction. To the reaction mixture was added a predetermined amount of an unlabeled metabolite mixed solution, and the mixture was stirred (about 5 min), centrifuged (4° C., 3000 rpm, 10 min) and the supernatant was collected. […] From the obtained radiochromatogram, the metabolism activity and metabolite generating activity of the ^14C-labeled test compound was calculated.

CYP2C8 = target: T2, CYP2C8 (Homo sapiens, UniProt P10632); test: Metabolizing isoform identification test, microsome expressing CYP2C8; format: in vitro ADME; details: microsome expressing CYP at 50 pmol CYP/mL, 2 μmol/L, 37° C., 20 min
T2 sequence (P10632 1-490): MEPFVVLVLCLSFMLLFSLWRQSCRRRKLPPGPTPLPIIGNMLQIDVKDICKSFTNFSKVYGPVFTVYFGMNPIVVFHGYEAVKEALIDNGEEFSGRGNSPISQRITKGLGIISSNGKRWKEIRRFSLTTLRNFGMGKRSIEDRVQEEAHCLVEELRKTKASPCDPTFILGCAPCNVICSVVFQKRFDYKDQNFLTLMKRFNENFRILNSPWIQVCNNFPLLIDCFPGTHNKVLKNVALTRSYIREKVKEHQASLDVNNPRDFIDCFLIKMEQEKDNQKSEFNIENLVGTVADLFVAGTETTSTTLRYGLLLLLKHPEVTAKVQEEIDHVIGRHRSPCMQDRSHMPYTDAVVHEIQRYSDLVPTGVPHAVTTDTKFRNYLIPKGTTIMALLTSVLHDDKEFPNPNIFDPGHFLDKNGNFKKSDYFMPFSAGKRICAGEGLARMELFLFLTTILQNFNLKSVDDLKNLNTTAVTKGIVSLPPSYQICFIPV
Description: as §1, §2, §4

CYP2C9 [4] = target: T3, CYP2C9 (Homo sapiens, UniProt P11712); test: Metabolizing isoform identification test, microsome expressing CYP2C9; format: in vitro ADME; details: microsome expressing CYP at 50 pmol CYP/mL, 2 μmol/L, 37° C., 20 min
Description: as §1, §2, §4

CYP2C19 = CYP2C19 (Homo sapiens, UniProt P33261); test: Metabolizing isoform identification test, microsome expressing CYP2C19; format: in vitro ADME; details: microsome expressing CYP at 50 pmol CYP/mL, 2 μmol/L, 37° C., 20 min
Description: as §1, §2, §4

CYP2C9 [5] = target: T3, CYP2C9; test: Investigation using an inhibitor (Sulfaphenazole) in human liver microsome; format: in vitro ADME; parameters: human liver microsome (0.5 mg protein/mL); from tissue; host or cells: human liver microsome; details: Sulfaphenazole 10 μmol/L, test compound 0.2 and 2 μmol/L
Description: On the other hand, as a reaction mixture for studying inhibitors, [^14C-labeled test compound (0.2 μmol/L and 2 μmol/L), inhibitor solution (Sulfaphenazole) (10 μmol/L), human liver microsome (0.5 mg protein/mL), EDTA (0.05 mmol/L) and Na—K phosphate buffer (pH 7.4, 0.1 mol/L)] was prepared and, after preincubation at 37° C. for 5 min, a solution of the NADPH generating system was added thereto to start the reaction.
as §3, with “To the residue was added a predetermined amount of HPLC mobile phase or suitable solvent, and the mixture was stirred and used as an HPLC sample. The sample was injected into HPLC and a radiochromatogram was obtained.” left out

T3 sequence (P11712 whole entry, canonical isoform): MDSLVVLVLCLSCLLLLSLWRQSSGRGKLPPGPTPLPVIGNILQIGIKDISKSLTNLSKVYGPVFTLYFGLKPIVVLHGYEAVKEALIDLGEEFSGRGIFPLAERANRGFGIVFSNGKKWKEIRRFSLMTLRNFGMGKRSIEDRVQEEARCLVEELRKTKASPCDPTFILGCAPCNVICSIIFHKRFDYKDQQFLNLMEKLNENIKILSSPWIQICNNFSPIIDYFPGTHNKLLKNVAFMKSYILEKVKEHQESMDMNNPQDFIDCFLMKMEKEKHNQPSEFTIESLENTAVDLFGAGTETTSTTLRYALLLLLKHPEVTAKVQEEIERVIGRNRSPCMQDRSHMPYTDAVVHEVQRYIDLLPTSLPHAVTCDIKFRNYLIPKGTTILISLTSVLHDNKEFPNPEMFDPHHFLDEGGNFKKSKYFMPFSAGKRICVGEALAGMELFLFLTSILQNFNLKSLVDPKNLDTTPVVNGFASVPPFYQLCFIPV
Sequence of CYP2C19 (P33261 whole entry, canonical isoform): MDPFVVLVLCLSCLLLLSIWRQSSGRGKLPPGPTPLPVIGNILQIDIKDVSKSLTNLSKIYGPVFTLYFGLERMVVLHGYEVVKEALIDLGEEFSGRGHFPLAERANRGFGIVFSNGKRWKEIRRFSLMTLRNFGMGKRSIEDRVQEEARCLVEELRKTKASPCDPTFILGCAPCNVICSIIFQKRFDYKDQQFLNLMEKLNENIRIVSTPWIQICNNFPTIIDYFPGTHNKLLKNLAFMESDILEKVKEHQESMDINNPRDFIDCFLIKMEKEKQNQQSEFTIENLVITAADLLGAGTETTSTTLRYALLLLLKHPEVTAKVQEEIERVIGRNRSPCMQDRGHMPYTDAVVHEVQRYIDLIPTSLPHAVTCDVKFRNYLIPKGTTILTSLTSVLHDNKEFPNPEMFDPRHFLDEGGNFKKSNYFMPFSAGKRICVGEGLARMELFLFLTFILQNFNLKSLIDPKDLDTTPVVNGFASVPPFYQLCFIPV
Sequence of CYP3A4 (P08684 whole entry, canonical isoform): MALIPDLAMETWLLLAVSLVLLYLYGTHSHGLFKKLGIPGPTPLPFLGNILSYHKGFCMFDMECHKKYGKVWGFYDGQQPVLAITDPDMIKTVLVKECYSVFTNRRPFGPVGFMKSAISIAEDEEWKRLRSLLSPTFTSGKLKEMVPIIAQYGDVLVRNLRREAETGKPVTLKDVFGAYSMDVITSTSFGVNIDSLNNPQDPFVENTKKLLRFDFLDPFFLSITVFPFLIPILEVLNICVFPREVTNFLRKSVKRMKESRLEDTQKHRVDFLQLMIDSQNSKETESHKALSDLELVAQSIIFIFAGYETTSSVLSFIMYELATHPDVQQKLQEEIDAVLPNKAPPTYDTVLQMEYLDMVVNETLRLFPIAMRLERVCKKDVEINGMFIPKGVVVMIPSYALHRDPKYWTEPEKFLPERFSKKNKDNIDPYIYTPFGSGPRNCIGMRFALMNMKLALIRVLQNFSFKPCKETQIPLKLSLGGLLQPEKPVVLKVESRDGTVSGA

EC50 [1] [nmol/L]	oxidative metabolism by human liver microsome [3]	Structure (SMILES)	TG lowering rate (%, 0.3 mg/kg, p.o.) TG ([2]; first column)	TG lowering rate (%, 0.3 mg/kg, p.o.) TG ([2]; second column)	TG lowering rate (normal rats; 0.3 mg/kg)	TG-lowering action (normal rats) [%]	further results
8.4		CC(C)(Sc1nc(C(O)COc2ccc(-c3ccc(F)cc3)cc2)cs1)C(=O)O (stereo not shown) [Example 2, 2-[(4-{2-[(4′-fluorobiphenyl-4-yl)oxy]-1-hydroxyethyl}-1,3-thiazol-2-yl)thio]-2-methylpropionic acid]	38%	34%	56%		
4.7		CC(C)(Sc1nc(C(=O)COc2ccc(-c3ccc(F)cc3)cc2)cs1)C(=O)O [Example 3, 2-[(4-{[(4′-fluorobiphenyl-4-yl)oxy]acetyl}-1,3-thiazol-2-yl)thio]-2-methylpropionic acid]					
3.1	could not be confirmed	CC(C)(Sc1nc([C@H](O)COc2ccc(-c3ccc(F)cc3)cc2)cs1)C(=O)O [Example 12, 2-[(4-{(1S)-2-[(4′-fluorobiphenyl-4-yl)oxy]-1-hydroxyethyl}-1,3-thiazol-2-yl)thio]-2-methylpropionic acid]				15.1	transcription activation activity relative to compound A (times stronger) ([1]; compared with compound A (10.41 nmol/l)): ≥ 3 times; involvement in the metabolism by CYP ([3]; summary statement in description): not involved in the metabolism by CYP; TG lowering rate (normal rats; 0.1 mg/kg): 52%
		CCCCCCCN(CCc1ccc(SC(C)(C)C(=O)O)cc1)C(=O)Nc1ccc(F)cc1F [GW-9578]	30-50%	30-50%	50-60%		
10.4	observed	CC(C)(Sc1nc(CCOc2ccc(-c3ccc(F)cc3)cc2)cs1)C(=O)O [compound A, 2-[(4-{2-[(4′-fluorobiphenyl-4-yl)oxy]ethyl}-1,3-thiazol-2-yl)thio]-2-methylpropionic acid]				0.7	metabolism by CYP3A4 (CYP3A4): also metabolized; metabolism by CYP2C8 (CYP2C8): also metabolized; metabolism by CYP2C9 (CYP2C9 [4]): mainly metabolized by CYP2C9; metabolism by CYP2C19 (CYP2C19): also metabolized; enzyme mainly involved in the metabolism (investigation using the inhibitor) (CYP2C9 [5]): CYP2C9
